Experimental data: ChEMBL document CHEMBL1158678, “Two new mono-tetrahydrofuran ring acetogenins, annomuricin E and muricapentocin, from the leaves of Annona muricata” (J Nat Prod, 1998)
Converted amounts (≈) assume the structure as drawn.

Tests used:
[1] = Toxicity against Artemia salina; type: organism-based; conditions: in vivo, read-out: ED50 (the source's name)
A549 = test: Cytotoxicity against human A549 cells after 7 days by MTT assay; type: functional; conditions: A549, 168 h, read-out: ED50 (the source's name)
MCF7 = test: Cytotoxicity against human MCF7 cells after 7 days by MTT assay; type: functional; conditions: MCF7, 168 h, read-out: ED50 (the source's name)
HT-29 = test: Cytotoxicity against human HT-29 cells after 7 days by MTT assay; type: functional; conditions: HT-29, 168 h, read-out: ED50 (the source's name)
A498 = test: Cytotoxicity against human A498 cells after 7 days by MTT assay; type: functional; conditions: A498, 168 h, read-out: ED50 (the source's name)
PC-3 = test: Cytotoxicity against human PC3 cells after 7 days by MTT assay; type: functional; conditions: PC-3, 168 h, read-out: ED50 (the source's name)
MIA PaCa-2 = test: Cytotoxicity against human MIAPaCa2 cells after 7 days by MTT assay; type: functional; conditions: MIA PaCa-2, 168 h, read-out: ED50 (the source's name)

CCCCCCCCCCCC[C@@H](O)[C@H]1CC[C@H]([C@H](O)CCC[C@@H](O)[C@@H](O)CCCCC[C@@H](O)CC2=C[C@H](C)OC2=O)O1 [ANNOMURICIN E]
LC50 [1]: 11.8 µg/mL (≈ 19.3 µM) | EC50 (A549): 0.112 µg/mL (≈ 0.183 µM) | EC50 (MCF7): 1.45 µg/mL (≈ 2.37 µM) | EC50 (HT-29): 0.0668 µg/mL (≈ 0.109 µM) | EC50 (A498): 1.41 µg/mL (≈ 2.3 µM) | EC50 (PC-3): 0.146 µg/mL (≈ 0.238 µM) | EC50 (MIA PaCa-2): 0.0242 µg/mL (≈ 0.0395 µM)

COc1cccc2c1C(=O)c1c(O)c3c(c(O)c1C2=O)C[C@@](O)(C(=O)CO)C[C@@H]3O[C@H]1C[C@H](N)[C@H](O)[C@H](C)O1 [DOXORUBICIN]
EC50 (A549): 0.00294 µg/mL (≈ 0.00541 µM) | EC50 (MCF7): 0.124 µg/mL (≈ 0.228 µM) | EC50 (HT-29): 0.0381 µg/mL (≈ 0.0701 µM) | EC50 (A498): 0.0158 µg/mL (≈ 0.0291 µM) | EC50 (PC-3): 0.0355 µg/mL (≈ 0.0653 µM) | EC50 (MIA PaCa-2): 0.00456 µg/mL (≈ 0.00839 µM)

CCCCCCCCCCCC[C@@H](O)[C@H]1CC[C@H]([C@H](O)CCC(O)CCCC(O)CCC[C@@H](O)CC2=C[C@H](C)OC2=O)O1 (stereo not given in full) [MURICAPENTOCIN]
LC50 [1]: 1.86 µg/mL (≈ 3.03 µM) | EC50 (A549): 0.193 µg/mL (≈ 0.315 µM) | EC50 (MCF7): 1.9 µg/mL (≈ 3.1 µM) | EC50 (HT-29): 0.071 µg/mL (≈ 0.116 µM) | EC50 (A498): 1.72 µg/mL (≈ 2.81 µM) | EC50 (PC-3): 0.45 µg/mL (≈ 0.734 µM) | EC50 (MIA PaCa-2): 0.0503 µg/mL (≈ 0.0821 µM)
